# No end group written: not given here.
# Columns and labels:
# Assay type in all cases: in vivo
# [1] = test system: microbiota of the intestine; experiment: Therapeutic high fat diet model in diet-induced obese mice, 16S microbial analyses (Example 2)
# Text: The overall design of the study is shown in FIG. 1, lower panel, “Therapeutic study”. Mice and diets. The experiment elucidates the effect of hBD-2 and HD5 on the microbiota in diet-induced obese mice. A run-in period of 13 weeks where mice were fed a very HFD (60% energy from fat) preceded the intervention. Only mice meeting the criteria of a minimum of 12 gram weight gain (approximately 50% of initial bodyweight) during the run-in period were included in the final analyses. […] They were exposed to all experimental tests, but excluded from the analyses.
# Treatment regimen. Before the intervention all mice were MR scanned. Cages of mice were allocated to experimental groups based on their fat mass. All subsequent measures were paired with data from the same mouse before the intervention. A LFD (low fat diet) reference group was running in parallel. As controls for the intervention 2 additional groups were included: a) very HFD and b) LFD. Experimental mice stayed on the very HFD during the intervention. The mice were on the experimental diet for 10 weeks. They were co-housed throughout the experiment, 4 mice per cage, 3 cages per group. All tests ran over 3 days, 1 cage per group per day.
# Microbial analyses were carried out to study the microbiota of the intestine. Longitudinal 16S characterization was conducted on 4 paired samples from 60 mice, 240 samples in total. Each mouse was sampled prior to diet change, 1 week post diet change, 4 weeks post diet change and at termination, thus ensuring a thorough characterization of the faecal microbiota as a result of defensin treatment.
# BALB/c mice [2] = experiment: Prophylactic treatment in murine house dust mite driven model of allergic asthma (Example 5); details: for Increase of airway resistance (airway hyper responsiveness) / Decrease of pulmonary compliance: vs HDM challenged vehicle
# Experimental: Treatment regime: Female 7-10 weeks old BALB/c mice were randomly allocated into 5study groups one day prior to study start and subcutaneously (SC) sensitized to house dust mite (100 μg HDM in 200 uL saline plus Freund's complete adjuvant in 0.9% saline). The mice were treated with hBD-2 orally and intranasally respectively at a dose of 1.2 mg/kg/day (0.4 mg/kg TID) starting on day 12 in the morning and continued TID at approximately 6 hours intervals. The last dose was administered on day 14 one hour prior to challenge. The total number of doses was 8 doses or a total of […] hBD-2.Mice were then intranasally (IN) challenged with HDM on day 14 (HDM 25 μg in 50 μL of saline) (FIG. 2).
# Airway inflammation: At 48 hours post challenge, bronchoalveolar lavage was performed washing the lungs with 3 volumes of cold PBS (0.4; 0.3 and 0.3 mL, total 1 mL). Total and differential leucocyte cell counts were determined on an automated haematological analyser Sysmex XT-2000iV.
# Lung function: Starting 48 hours after HDM challenge, measurements of lung resistance and lung compliance were carried out after methacholine challenge (3.125 MCH1; 6.25 MCH2; 12.5 MCH3 and 25 mg/mL MCH4) by anaesthetized, cannulated mice using DSI's Buxco Finepoint RC system. Data are represented as airway resistance at […] methacholine and as dose responsive curves. Lung sampling for cytokine analysis: After completion of every BAL, lungs were removed from the thorax, snap frozen in liquid nitrogen and stored frozen at −80 degrees Celsius until analysis of cytokine concentration of TNF-α, IL-4, IL-5, IL-6, IL-9, IL-13 and IL-33 in lung homogenate by ELISA.
# BALB/c mice [3] = experiment: Murine model of acute graft versus host disease, oral HD5 (Example 13)
# Experimental: Treatment regime: 22 female BALB/c mice were irradiated with 4.5 Gy (2×498 sec) at intervals of at least 4 hours on day 0. Bone marrow was harvested: hind limbs harvested from 2 female WT C57BL/6 mice aseptically. Skeletal muscle was removed and epiphysis cut away. Lumen of bone flushed with PBS and cells pelleted and taken up. Harvest of T-cells: spleens from 2 female WT C57BL/6 mice were meshed through a […] cell strainer into a PBS filled dish. Cells were taken up in PBS and transferred into a 50 mL falcon tube and spun down. Cells were taken up in 1 mL PBS and 20 μL of CD4 microbead +20 μL CD8 microbeads per spleen added for incubation for 20 min at 4 degrees C. Cells were washed with PBS and applied to MACS separation in order to positively select CD4+ and CD8+ cells. Positively selected T-cells were counted and taken up. Transplantation: directly after the second irradiation, all WT BALB/c recipient mice were injected with 5×1.000.000 BM cells (50 μL) i.v. into the retroorbital venous plexus under isoflurane anesthesia. 22 BALB/c mice were treated with 1.2 mg of HD5/kg BW/day; 1.2 mg of hBD-2/kg BW/day or 100 μL of PBS per day vial oral gavage from day 0-10.
# Survival was monitored for 60 days.
# [4] = intranasal administration, not statistically significantly different from the control
substance,measurement,setting,value
human beta defensin 2 (GIGDPVTCLKSGAICHPVFCPRRYKQIGTCGLPGTKCCKKP; ends and bridges not checked; cysteine pairing not given here; listed as Homo sapiens) [hBD-2],Relative abundance of Bifidobacteriaceae,"[1]; colon, hBD-2 p<0.04",dramatically and statistically significant increased the relative abundance of Bifidobacteriaceae
same,Abundance of Alloprevotella,"[1]; colon, therapeutic intervention, HD5 p<0.02",no influence on Alloprevotella abundance
same,Relative abundance of Bifidobacteriaceae,"[1]; small intestine, hBD-2 p<0.0001",dramatically and statistically significant increased the relative abundance of Bifidobacteriaceae
same,Increase of airway resistance (airway hyper responsiveness),"BALB/c mice [2]; intranasal 0.4 mg/kg TID day 12 to day 14, 8 administrations",effectively inhibited increase of airway resistance
same,Decrease of pulmonary compliance,BALB/c mice [2]; intranasal 0.4 mg/kg TID day 12 to day 14,effectively inhibited
same,IL-4 concentration in lung tissue homogenate,BALB/c mice [2]; [4],trend towards lowering
same,IL-5 concentration in lung tissue homogenate,BALB/c mice [2]; [4],trend towards lowering
same,IL-6 concentration in lung tissue homogenate,BALB/c mice [2]; [4],trend towards lowering
same,IL-9 concentration in lung tissue homogenate,BALB/c mice [2]; [4],trend towards lowering
same,IL-13 concentration in lung tissue homogenate,BALB/c mice [2]; [4],trend towards lowering
same,TNF-α concentration in lung tissue homogenate,BALB/c mice [2]; [4],trend towards lowering
same,Increase of airway resistance (airway hyper responsiveness),"BALB/c mice [2]; oral 0.4 mg/kg TID day 12 to day 14, 8 administrations, 48 hours after HDM challenge",effectively inhibited increase of airway resistance
same,Decrease of pulmonary compliance,BALB/c mice [2]; oral 0.4 mg/kg TID day 12 to day 14,effectively inhibited
same,IL-4 concentration in lung tissue homogenate,BALB/c mice [2]; oral administration,complete normalization of cytokine concentrations
same,IL-5 concentration in lung tissue homogenate,BALB/c mice [2]; oral administration,complete normalization of cytokine concentrations
same,IL-6 concentration in lung tissue homogenate,BALB/c mice [2]; oral administration,complete normalization of cytokine concentrations
same,IL-9 concentration in lung tissue homogenate,BALB/c mice [2]; oral administration,complete normalization of cytokine concentrations
same,IL-13 concentration in lung tissue homogenate,BALB/c mice [2]; oral administration,complete normalization of cytokine concentrations
same,TNF-α concentration in lung tissue homogenate,BALB/c mice [2]; oral administration,complete normalization of cytokine concentrations
same,Neutrophil counts in BALF,"BALB/c mice [2]; oral application, 48 hours post challenge",significantly inhibited neutrophil counts
same,Animals that had died by day 60,"BALB/c mice [3]; 1.2 mg/kg BW/day oral gavage day 0-10, HD5 group of 8, PBS six out of eight died",none
same,Mortality,"BALB/c mice [3]; 22 mice, oral treatment for 10 days",significant reduction of mortality

# Source: US20250009844A1, “MATURATION OF MUCOSAL DEFENSE AND GUT/LUNG FUNCTION IN THE PRETERM INFANT” (Novozymes A/S, priority 2017, published 2025)
